Results published in patent publication US20240398812A1 (Caraway Therapeutics, Inc., priority 2021, published 2024).

Columns and labels:
human TRPML1 = human TRPML1 (Homo sapiens, UniProt Q9GZU1); test: Fluorescent TRPML1 assay (Fluo4-AM calcium fluorescence, HEK-293 Trex cells); type: cell-based
Protocol: (§1) HEK-293 Trex cells were stably transfected with a construct consisting of the human coding sequence for TRPML1 cloned into the tet-inducible plasmid pCDNA5 T/O. Mutations were introduced into the TRPML1 sequence to facilitate expression on the cell surface (Silvia Vergarajauregui, Rosa Puertollano Traffic. 2006 March; 7 (3): 337-353). Briefly, the cells are cultured in 150 mm round tissue culture dishes containing 20 mL of media. The day before the assay the cells are rinsed with DPBS —Ca—Mg and then treated briefly with Trypsin-EDTA. The Trypsin-EDTA is diluted with growth media, and cells are counted. 38×10^6 cells are re-plated into 150 mm round tissue culture dishes in media containing 0.5 ug/mL doxycycline to induce expression of hTRPML1.
(§2) The day of the experiment cells are lifted from the plates as above and collected by centrifugation. The cells are then suspended in dye loading buffer consisting of Ringer's solution supplemented with 0.1% Pluronic Acid and 1 micromolar Fluo4-AM dye. Cells are loaded for ˜60 minutes in the dark with occasional mixing. The cells are collected by centrifugation, the loading media aspirated, and the cells resuspended in 25 mL Ringer's solution and incubated ˜60 minutes in the dark. The cells are again collected by centrifugation, rinsed in Ringer's Solution and resuspended to 0.2×10^6 cells/mL in modified Ringer's solution containing 10 mM calcium.
(§3) Compounds are dissolved to a concentration of 10 millimolar with DMSO. Compound plates are created by dispensing compounds into 384 well black wall clear bottom plates (Greiner 781091). Positive and negative controls are included on each plate. Typically, different amounts of each compound are tested ranging from 100 nanoMoles (20 micromolar final concentration) decreasing in half-log steps to 31 picoMoles (6 nanomolar final concentration). Each concentration is typically tested in triplicate.
(§4) 50 microliters of dye-loaded cells are dispensed into each well of the compound assay plate created above. The fluorescence in each well is then determined with an excitation wavelength of 480 nm and an emission wavelength of 540 nm using either a Molecular Devices SpectraMax multimode plate reader or a Hamamatsu FDSS/uCell plate imager.
(§5) The resulting fluorescence for each well is exported as an ascii file and loaded into our LIMS for analysis. The percent activity of each compound at each concentration is determined by comparison to the positive and negative control wells included in each plate.
(§6) EC50 values were calculated using a non-linear regression of Prism. In the table, “A” indicates an EC50 of less than 100 nM, “B” indicates an EC50 range from 100 nM to 500 nM; “C” indicates an EC50 range from 500 nM to 2 μM; and “D” indicates an EC50 greater than 2 μM.

TRPML3 = molecular target: T1, TRPML3 (Homo sapiens, UniProt Q8TDD5); test: Fluorescent TRPML3 assay (as for TRPML1); type: cell-based
T1 construct: expressed in transfected cells
T1 sequence (Q8TDD5 1-553): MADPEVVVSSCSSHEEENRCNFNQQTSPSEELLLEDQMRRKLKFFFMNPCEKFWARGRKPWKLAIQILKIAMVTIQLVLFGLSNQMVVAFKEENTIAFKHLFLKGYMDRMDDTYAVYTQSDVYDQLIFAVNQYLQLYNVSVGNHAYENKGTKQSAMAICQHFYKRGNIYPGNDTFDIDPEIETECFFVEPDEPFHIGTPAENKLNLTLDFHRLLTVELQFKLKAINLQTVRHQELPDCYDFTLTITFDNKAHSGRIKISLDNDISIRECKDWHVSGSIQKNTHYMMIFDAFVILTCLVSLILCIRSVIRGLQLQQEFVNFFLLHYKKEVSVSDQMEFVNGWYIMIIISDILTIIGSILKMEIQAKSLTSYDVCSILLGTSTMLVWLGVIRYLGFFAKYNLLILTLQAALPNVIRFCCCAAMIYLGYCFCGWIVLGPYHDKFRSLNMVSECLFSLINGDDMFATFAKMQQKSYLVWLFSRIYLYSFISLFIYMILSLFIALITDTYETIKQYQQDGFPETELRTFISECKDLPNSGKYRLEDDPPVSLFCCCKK
Protocol: as §1, §2, §3, §4, §5
Assays for TRPML2 and TRPML3 were performed as above for TRPML1, by substituting the appropriate TRPML2 or TRPML3 subtype for the TRPML1.
as §6

Chain of human TRPML1 (Q9GZU1 whole entry L15A/L16A/L577A/L578A, form open): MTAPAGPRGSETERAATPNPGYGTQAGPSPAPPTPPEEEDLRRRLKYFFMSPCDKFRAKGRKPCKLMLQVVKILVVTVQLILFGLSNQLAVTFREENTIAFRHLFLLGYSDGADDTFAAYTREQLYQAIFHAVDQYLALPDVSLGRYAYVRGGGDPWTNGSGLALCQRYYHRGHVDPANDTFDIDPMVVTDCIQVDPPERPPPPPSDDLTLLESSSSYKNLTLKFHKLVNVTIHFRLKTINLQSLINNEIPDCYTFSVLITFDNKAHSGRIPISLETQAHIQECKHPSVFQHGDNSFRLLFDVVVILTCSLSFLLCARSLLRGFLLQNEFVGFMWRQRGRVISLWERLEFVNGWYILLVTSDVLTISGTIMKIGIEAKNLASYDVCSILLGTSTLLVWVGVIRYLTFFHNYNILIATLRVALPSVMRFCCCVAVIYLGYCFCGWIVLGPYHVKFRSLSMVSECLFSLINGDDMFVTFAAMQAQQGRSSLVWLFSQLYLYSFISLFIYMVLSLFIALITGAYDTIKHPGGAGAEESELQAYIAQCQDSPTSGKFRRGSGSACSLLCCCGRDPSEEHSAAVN

SMILES	EC50 (human TRPML1; Table 3, compounds 201-283)	EC50 (TRPML3; Table 3, compounds 201-283)	EC50 (human TRPML1; Table 3, compounds 101-177)	EC50 (TRPML3; Table 3, compounds 101-177)
C[C@H]1CN(C(=O)C(C)(C)C)CCN1c1nccc2c1c(N1CCC1)cn2-c1cccc(F)c1 [Compound 227, (S)-1-(4-(3-(azetidin-1-yl)-1-(3-fluorophenyl)-1H-pyrrolo[3,2-c]pyridin-4-yl)-3-methylpiperazin-1-yl)-2,2-dimethylpropan-1-one]	< 100 nM	< 100 nM	–	–
C[C@H]1CN(C(=O)C(C)(C)O)CCN1c1ncnc2c1c(-c1ccccc1F)cn2-c1cc(C#N)ccn1 [Compound 159, (S)-2-(5-(2-fluorophenyl)-4-(4-(2-hydroxy-2-methylpropanoyl)-2-methylpiperazin-1-yl)-7H-pyrrolo[2,3-d]pyrimidin-7-yl)isonicotinonitrile]	–	–	< 100 nM	100 to 500 nM
C[C@@H]1CN(c2nccc3c2c(N2CCC2)cn3-c2cccc(F)c2)[C@@H](C)CN1C(=O)C(C)(C)C [Compound 226, 1-((2R,5S)-4-(3-(azetidin-1-yl)-1-(3-fluorophenyl)-1H-pyrrolo[3,2-c]pyridin-4-yl)-2,5-dimethylpiperazin-1-yl)-2,2-dimethylpropan-1-one]	< 100 nM	< 100 nM	–	–
CC(C)C(=O)N1CCN(c2ncnc3c2c(-c2ccccc2F)cn3-c2nccc(C#N)n2)[C@@H](C)C1 [Compound 156, (S)-2-(5-(2-fluorophenyl)-4-(4-isobutyryl-2-methylpiperazin-1-yl)-7H-pyrrolo[2,3-d]pyrimidin-7-yl)pyrimidine-4-carbonitrile]	–	–	500 to 2000 nM	500 to 2000 nM
CC(C)C(=O)N1CCN(c2ncnc3c2c(N2CCC2)cn3-c2cc(C#N)ccn2)C[C@H]1C [Compound 273, (R)-2-(5-(azetidin-1-yl)-4-(4-isobutyryl-3-methylpiperazin-1-yl)-7H-pyrrolo[2,3-d]pyrimidin-7-yl)isonicotinonitrile]	< 100 nM	< 100 nM	–	–
CC(F)C(=O)N1CCN(c2ncnc3c2c(-c2ccccc2F)cn3-c2cc(C#N)ccn2)[C@@H](C)C1 (stereo partly drawn) [Compound 113, 2-(5-(2-fluorophenyl)-4-((2S)-4-(2-fluoropropanoyl)-2-methylpiperazin-1-yl)-7H-pyrrolo[2,3-d]pyrimidin-7-yl)isonicotinonitrile]	–	–	< 100 nM	100 to 500 nM
C[C@H]1CN(C(=O)C(C)(C)F)CCN1c1ncnc2c1c(-c1ccccc1F)cn2-c1cc(C#N)ccn1 [Compound 125, (S)-2-(4-(4-(2-fluoro-2-methylpropanoyl)-2-methylpiperazin-1-yl)-5-(2-fluorophenyl)-7H-pyrrolo[2,3-d]pyrimidin-7-yl)isonicotinonitrile]	–	–	< 100 nM	< 100 nM
CC(C)(O)C(=O)N1CCN(c2ncnc3c2c(-c2ccccc2F)cn3-c2cc(C#N)ccn2)C2(CC2)C1 [Compound 174, 2-(5-(2-fluorophenyl)-4-(7-(2-hydroxy-2-methylpropanoyl)-4,7-diazaspiro[2.5]octan-4-yl)-7H-pyrrolo[2,3-d]pyrimidin-7-yl)isonicotinonitrile]	–	–	< 100 nM	< 100 nM
CC(C)C(=O)N1C[C@H](C)N(c2ncnc3c2c(N2CCC2)cn3-c2cc(C#N)ccn2)C[C@H]1C [Compound 275, 2-(5-(azetidin-1-yl)-4-((2S,5R)-4-isobutyryl-2,5-dimethylpiperazin-1-yl)-7H-pyrrolo[2,3-d]pyrimidin-7-yl)isonicotinonitrile]	< 100 nM	100 to 500 nM	–	–
CC(C)C(=O)N1CCN(c2ncnc3c2c(-c2ccccc2)cn3-c2cc(C#N)ccn2)C[C@H]1C [Compound 119, (R)-2-(4-(4-isobutyryl-3-methylpiperazin-1-yl)-5-phenyl-7H-pyrrolo[2,3-d]pyrimidin-7-yl)isonicotinonitrile]	–	–	< 100 nM	< 100 nM
CC(C)C(=O)N1CCN(c2ncnc3c2c(-c2ccccc2F)cn3-c2cc(C#N)ccn2)CC12CC2 [Compound 145, 2-(5-(2-fluorophenyl)-4-(4-isobutyryl-4,7-diazaspiro[2.5]octan-7-yl)-7H-pyrrolo[2,3-d]pyrimidin-7-yl)isonicotinonitrile]	–	–	100 to 500 nM	< 100 nM
C[C@H]1CN(C(=O)C2(C)CC2)CCN1c1ncnc2c1c(-c1ccccn1)cn2-c1cc(C#N)ccn1 [Compound 127, (S)-2-(4-(2-methyl-4-(1-methylcyclopropane-1-carbonyl)piperazin-1-yl)-5-(pyridin-2-yl)-7H-pyrrolo[2,3-d]pyrimidin-7-yl)isonicotinonitrile]	–	–	500 to 2000 nM	> 2000 nM
C[C@H]1CN(C(=O)C(C)(C)O)CCN1c1ncnc2c1c(C1CC1)cn2-c1cc(C#N)ccn1 [Compound 160, (S)-2-(5-cyclopropyl-4-(4-(2-hydroxy-2-methylpropanoyl)-2-methylpiperazin-1-yl)-7H-pyrrolo[2,3-d]pyrimidin-7-yl)isonicotinonitrile]	–	–	100 to 500 nM	> 2000 nM
CC(C)C(=O)N1C[C@H](C)N(c2ncnc3c2c(-c2ccccc2F)cn3-c2cc(F)ccn2)C[C@H]1C [Compound 167, 1-((2R,5S)-4-(5-(2-fluorophenyl)-7-(4-fluoropyridin-2-yl)-7H-pyrrolo[2,3-d]pyrimidin-4-yl)-2,5-dimethylpiperazin-1-yl)-2-methylpropan-1-one]	–	–	< 100 nM	< 100 nM
C[C@H]1CN(C(=O)C(C)(C)F)CCN1c1ncnc2c1c(C1CC1)cn2-c1cc(C#N)ccn1 [Compound 114, (S)-2-(5-cyclopropyl-4-(4-(2-fluoro-2-methylpropanoyl)-2-methylpiperazin-1-yl)-7H-pyrrolo[2,3-d]pyrimidin-7-yl)isonicotinonitrile]	–	–	< 100 nM	< 100 nM
CC(C)C(=O)N1CCN(c2ncnc3c2c(C2CCC2)cn3-c2cc(C#N)ccn2)[C@@H](C)C1 [Compound 150, (S)-2-(5-cyclobutyl-4-(4-isobutyryl-2-methylpiperazin-1-yl)-7H-pyrrolo[2,3-d]pyrimidin-7-yl)isonicotinonitrile]	–	–	500 to 2000 nM	500 to 2000 nM
C[C@H]1CN(C(=O)C2CC2)CCN1c1ncnc2c1c(-c1ccccc1)cn2-c1cc(C#N)ccn1 [Compound 123, (S)-2-(4-(4-(cyclopropanecarbonyl)-2-methylpiperazin-1-yl)-5-phenyl-7H-pyrrolo[2,3-d]pyrimidin-7-yl)isonicotinonitrile]	–	–	100 to 500 nM	100 to 500 nM
C[C@H]1CN(C(=O)C2(C)CC2)CCN1c1ncnc2c1c(-c1ccccc1F)cn2-c1cc(C#N)ccn1 [Compound 112, (S)-2-(5-(2-fluorophenyl)-4-(2-methyl-4-(1-methylcyclopropane-1-carbonyl)piperazin-1-yl)-7H-pyrrolo[2,3-d]pyrimidin-7-yl)isonicotinonitrile]	–	–	< 100 nM	< 100 nM
C[C@H]1CN(C(=O)CC(C)(C)C)CCN1c1ncnc2c1c(C1CC1)cn2-c1cc(C#N)ccn1 [Compound 136, (S)-2-(5-cyclopropyl-4-(4-(3,3-dimethylbutanoyl)-2-methylpiperazin-1-yl)-7H-pyrrolo[2,3-d]pyrimidin-7-yl)isonicotinonitrile]	–	–	100 to 500 nM	100 to 500 nM
CC(C)C(=O)N1C[C@H](C)N(c2ncnc3c2c(N2CCC2)cn3-c2cccc(Cl)c2)C[C@H]1C [Compound 221, 1-((2R,5S)-4-(5-(azetidin-1-yl)-7-(3-chlorophenyl)-7H-pyrrolo[2,3-d]pyrimidin-4-yl)-2,5-dimethylpiperazin-1-yl)-2-methylpropan-1-one]	< 100 nM	500 to 2000 nM	–	–
